The values that follow come from patent US6759051B2, “Cosmetic or dermatological composition comprising at least one alkynyl carbamate and at least one polyol” (L'Oreal, priority 1998, dated 2004).

The experiment relates to Pityrosporum ovale from the Institut Pasteur, reference CIP 1363.82. The experiment can be described thus: Antifungal activity by the MIC (Minimum Inhibitory Concentration) method. Conditions: each compound at the concentration MIC/2; Sabouraud+Tween 40+glyceryl monooleate agar medium, 48 hours at 30° C. It is filed as cell-based. Here is the method:
The activity of the combination of compound (A) and compound (B) was determined by a conventional method known as the MIC (Minimum Inhibitory Concentration), the MIC corresponding to the concentration at which a given […] inhibits the growth of a given strain under defined conditions.
In this instance, strains of Pityrosporum ovale from the Institut Pasteur, reference CIP 1363.82, were used.
An inoculum of a fresh culture, of 1 to 10×10^7 cells/ml, is introduced into a Sabouraud+Tween 40 at 10 g/l+glyceryl monooleate at 2.5 g/l agar medium, in the presence or absence of the compound or of the combination of the compounds to be studied, and incubated for 48 hours at 30° C.

Take `CCCCNC(=O)OCC#CI` [Compound A, 3-iodo-2-propynyl butyl carbamate]: the “growth of the microorganism” value was “identical to that of the control medium”.

On to `CCCCC(CC)COCC(O)CO` (centres unmarked) [Compound B, 3-(2-ethylhexyloxy)-1,2-propanediol], for which the “growth of the microorganism” value was “identical to that of the control medium”.
